Data set [1] relates to macrophages (CD11b+F4/80+). The settings on record: mouse, in vivo. The protocol: Multi-color flow cytometry was performed to evaluate the uptake of NS of the present invention within cells of the innate and adaptive immune system. Mice were administered DyLight 650-labeled PS, MC and FM by tail vein injection. After different time points (1 h, 24 h, and 48 h), spleen, LN, liver, kidneys, and blood were collected and prepared into single cell suspensions for analysis (gating strategies shown in FIG. 11). For all organs evaluated, NS were predominantly taken up by phagocytic cells in the MPS (FIG. 3, FIG. 12).
C57BL/6 female mice (n=6-8), were injected intravenously with 150 μl of MC, PS, and FM with block copolymer concentration of 15 mg/mL. At different time points (1 h, 24 h, and 48 h post-injection), mice were anesthetized by intraperitoneal (i.p.) injection of a mixture of Ketamine/Xylazine followed by exsanguination. Blood was collected by retro-orbital puncture with BD Microtainer tubes and dipotassium EDTA (BD Biosciences). Serum was separated by centrifugation at 3000 rpm at 4° C. for 25 min. Fluorescence intensity of each nanostructure was normalized by diluting NS solutions in PBS and measuring the fluorescence using a spectrophotometer. The fluorescence of blood serum was measured with an excitation of 655 nm and the emission of 675 nm and correlated with the normalized standard curve for each DyLight 650-labeled NS. To prepare white blood cell suspensions, blood cells were washed twice with 10 ml PBS and treated 3× with ammonium-chloride-potassium (ACK) lysis buffer (Invivogen) to eliminate red blood cells. Liver, spleen, LN (popliteal, inguinal, axillary and brachial), and kidneys were harvested, gently dissociated and incubated in a 12-well plate with each well of 2 ml Collagenase D (2 mg/mL) for 45 min at 37° C. and 5% CO2. Single-cell suspensions were prepared by mechanical dissociation and passing through a 70 μm cell strainer. Anti-mouse CD16/CD32 was used to block FcRs and Zombie Aqua fixable viability dye was used to determine live/dead cells. For flow cytometric analysis, cells were stained using cocktails of fluorophore-conjugated anti-mouse antibodies: panel 1: CD45-FITC, CD3-APC/Cy7, CD4-PE, CD8α-PE/Cy7, NK1.1-PerCP-Cy5.5, CD19-Pacific Blue; panel 2: I-A/I-E-FITC, CD11c-Pacific Blue, CD8α-PE-Cy7, CD11b-PerCP-Cy5.5, CD45RB/B220-PE, Gr-1-APC-Cy7; and panel 3: F4/80-FITC, CD11c-Pacific Blue, CD11b-PerCP-Cy5.5, Ly6C-APC/Cy7, Ly6G-PE/Cy7. After washes, cells were fixed by IC cell fixation buffer (Biosciences). Flow cytometry was performed with FACSDiva on a LSRII flow cytometer (BD Biosciences) and data were analyzed with FlowJo software.

Data set [2] can be described thus: Organ-level biodistribution of ICG-loaded nanostructures by IVIS NIR fluorescence imaging. The data set is classed as in vivo, mouse. The settings on record: 24 h after I.V. injection, C57BL/6 mice. An excerpt: Nanomaterials have been widely used to deliver therapeutic agents in vivo, and their tissue distribution can either limit or enhance such applications. ICG-loaded MC, PS and FM were therefore assembled at a 33:1 molar ratio of copolymer:dye, and their biodistributions were compared to control injections of free form ICG and PBS in naïve C57BL/6 mice. Liver, spleen, kidneys, lung and heart were harvested and investigated with an IVIS optical imaging system. Following I.V. injection, ICG usually has a half-life of less than 10 minutes primarily due to removal from circulation in the liver.
The ICG-loaded MC, PS and FM were prepared with the optimal molar ratio of PEG-bl-PPS:ICG (33:1) and suspended in PBS. Free ICG (50 μg/mL in PBS solution) served as a control. C57BL/6 mice (n=6) were injected intravenously with 150 μl of free ICG, MC, PS and FM (7.5 μg of loaded ICG in each sample). At different time points (1 h, 24 h, and 48 h post-injection), whole-body NIR fluorescence imaging was performed using an IVIS Lumina (Center for Advanced Molecular Imaging, Northwestern University) with λexc=745 nm, λem=810 nm, exposure time=2 s and f/stop=2. For organ NIR fluorescence imaging, animals were euthanized by carbon dioxide and liver, spleen, kidney, heart, and lung were harvested in petri dishes and imaged by the IVIS Lumina with the same parameters as previous.

For data set [3] the following is noted: removal from circulation in the liver; cited from earlier work.

Where two headings read alike, the source gives them in different places.

As to PEG44-bl-PPS45 [FM], in data set [1], the “percentage of macrophages nanostructure positive” value (“percentage” for short) is listed as 25%.
As to PEG17-bl-PPS30, in data set [1], the “decrease in uptake by liver macrophages on switching from MC to PS morphology” value is “over 50%” and the “percentage” value was 40%. In data set [1] (iv), the “percentage” value is given as 30%-40%.
As for `CC1(C)C(/C=C/C=C/C=C/C=C2\N(CCCCS(=O)(=O)O)c3ccc4ccccc4c3C2(C)C)=[N+](CCCCS(=O)(=O)[O-])c2ccc3ccccc3c21` [ICG, indocyanine green], in data set [2], the “ICG fluorescence in organs” value is given as “no observable fluorescence”. For the same compound, in data set [3], the “half-life following I.V. injection” value is recorded as “less than 10 minutes”.
In the case of PEG45-bl-PPS20 [MC], the “percentage” value in data set [1] is “over 90%”.

Source of the values: patent US10821078B2, “Nanostructure enhanced targeting (NSET) of inflammatory cells” (Northwestern University, priority 2016, dated 2020).
